The supplement of paper PMC6045584
± gives the standard deviation of the averaged measurements.

Legend:
SNX-5422 = compound: CC1(C)CC(=O)c2c(C(F)(F)F)nn(-c3ccc(C(N)=O)c(N[C@H]4CC[C@H](OC(=O)CN)CC4)c3)c2C1 [SNX-5422]; assay: area under dose-response curve of surviving fraction (unscaled, Aref=0) (surviving fraction x log10(nM)); higher = more resistant; settings: exposure time: 5 days; dose range 0.5-1000 nM
Method in brief: (§1)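 Three screens per tumour cell line were run in 384-well plates at eight inhibitor concentrations from 0.5 to 1000 nM over five days. Surviving fractions, from CellTiter-Glo luminescence normalised to DMSO-only wells, were fitted with 3-parameter logistic curves in the drc R package. The reported area under the curve is the unscaled activity area. It spans log10 dose, and Aref is 0.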

BI-2536 = compound: CC[C@@H]1C(=O)N(C)c2cnc(Nc3ccc(C(=O)NC4CCN(C)CC4)cc3OC)nc2N1C1CCCC1 [BI-2536]; assay: as above; settings: exposure time: 5 days; dose range 0.5-1000 nM
Method in brief: as §1

SAPACITABINE [1] = compound: T1, CCCCCCCCCCCCCCCC(=O)Nc1ccn([C@@H]2O[C@H](CO)[C@@H](O)[C@@H]2C#N)c(=O)n1 [SAPACITABINE]; assay: as above; settings: exposure time: 5 days; dose range 0.5-1000 nM
Method in brief: as §1

[2] = compound: Cn1cc(C2=Nc3cc(NC(=O)C(N)C4CCCCC4)cc4c3C2=CNNC4=O)cn1; assay: as above; settings: exposure time: 5 days; dose range 0.5-1000 nM
Method in brief: as §1

CANERTINIB = compound: C=CC(=O)Nc1cc2c(Nc3ccc(F)c(Cl)c3)ncnc2cc1OCCCN1CCOCC1 [CANERTINIB]; assay: as above; settings: exposure time: 5 days; dose range 0.5-1000 nM
Method in brief: as §1

TIOGUANINE = compound: Nc1nc2[nH]cnc2c(=S)[nH]1 [TIOGUANINE]; assay: as above; settings: exposure time: 5 days; dose range 0.5-1000 nM
Method in brief: as §1

MDV3100 = compound: CNC(=O)c1ccc(N2C(=S)N(c3ccc(C#N)c(C(F)(F)F)c3)C(=O)C2(C)C)cc1F [MDV3100]; assay: as above; settings: exposure time: 5 days; dose range 0.5-1000 nM
Method in brief: as §1

SAPACITABINE [3] = compound: T1, SAPACITABINE; assay: surviving fraction relative to DMSO-only wells; higher = less growth inhibition; settings: exposure time: 5 days
Method in brief: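 Tumour cell lines in log phase were plated in 384-well plates at 250–500 cells per well, then, after 24 hours, exposed continuously for five days to inhibitors at 0.5, 1, 5, 10, 50, 100, 500 and 1000 nM. Viability came from CellTiter-Glo luminescence, and surviving fraction is that signal normalised to the median of DMSO-only wells. Plates were read after 10 minutes at room temperature, and each line, screened three times, was kept only when replicate Pearson r was >0.7 and median Z' was >0.3.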

AFATINIB = compound: CN(C)C/C=C/C(=O)Nc1cc2c(Nc3ccc(F)c(Cl)c3)ncnc2cc1O[C@H]1CCOC1 [AFATINIB]; assay: area under dose-response curve of surviving fraction (unscaled, Aref=0) (surviving fraction x log10(nM)); higher = more resistant; settings: exposure time: 5 days; dose range 0.5-1000 nM
Method in brief: as §1

Test System	area under dose-response curve (SNX-5422)	area under dose-response curve (BI-2536)	area under dose-response curve (SAPACITABINE [1])	area under dose-response curve [2]	area under dose-response curve (CANERTINIB)	area under dose-response curve (TIOGUANINE)	area under dose-response curve (MDV3100)	surviving fraction (SAPACITABINE [3]; 0.5 nM)	surviving fraction (SAPACITABINE [3]; 1 nM)	surviving fraction (SAPACITABINE [3]; 5 nM)	surviving fraction (SAPACITABINE [3]; 10 nM)	surviving fraction (SAPACITABINE [3]; 50 nM)	surviving fraction (SAPACITABINE [3]; 100 nM)	surviving fraction (SAPACITABINE [3]; 500 nM)	surviving fraction (SAPACITABINE [3]; 1000 nM)	area under dose-response curve (AFATINIB)
DU4475 BREAST	1.76	1.14	1.86	2.46	2.65	2.55	3.04	0.637 ± 0.062	0.863 ± 0.13	0.743 ± 0.051	0.699 ± 0.12	0.655 ± 0.077	0.458 ± 0.049	0.16 ± 0.033	0.0713 ± 0.018	
HCC202 BREAST	2.33	1.68		2.24		4.41		0.86 ± 0.17	0.93 ± 0.091	1.04 ± 0.38	0.761 ± 0.21	1.08 ± 0.37	0.904 ± 0.0085	0.911 ± 0.15	0.851 ± 0.048	1.39
OSHN BONE	2.25	1.13	2.83	2.6	3.16		3.44	0.902 ± 0.034	0.917 ± 0.024	0.92 ± 0.013	0.891 ± 0.014	0.998 ± 0.02	0.928 ± 0.011	0.345 ± 0.032	0.158 ± 0.011	3.58
ASKA SYNOVIAL	2.11	1.04	2.18	2.3		3.56		0.917 ± 0.028	0.783 ± 0.0061	0.865 ± 0.024	0.327 ± 0.053	0.911 ± 0.043	0.688 ± 0.044	0.489 ± 0.01	0.203 ± 0.014	3.14
SJSA1 BONE	2.07	1.58	4.77	3.02		3.46	2.71	1.24 ± 0.072	1.18 ± 0.095	1.19 ± 0.25	1.21 ± 0.066	1.65 ± 0.058	1.74 ± 0.087	1.65 ± 0.1	1.75 ± 0.11	3.26
CME SYNOVIAL	2.5	1.64	1.45		3.18	3.97	2.99	0.788 ± 0.087	0.415 ± 0.05	0.703 ± 0.091	0.027 ± 0.011	0.922 ± 0.077	0.379 ± 0.075	0.248 ± 0.016	0.034 ± 0.0076	4.36
HMT3552 BREAST			2.99		2.58		3.66	0.838 ± 0.009	0.825 ± 0.075	0.943 ± 0.027	0.887 ± 0.053	1.141 ± 0.0031	1 ± 0.093	0.418 ± 0.019	0.303 ± 0.024	
HCC1954 BREAST	1.62	1.92	1.48	2.06	0.92	3.09		0.436 ± 0.047	0.437 ± 0.016	0.445 ± 0.058	0.559 ± 0.1	0.464 ± 0.037	0.371 ± 0.014	0.425 ± 0.0067	0.343 ± 0.035	1.86
HCC70 BREAST	2.19	2	2.57	2.23	3	3.37	3.28	0.968 ± 0.09	0.935 ± 0.058	1.03 ± 0.036	0.97 ± 0.023	0.746 ± 0.065	0.635 ± 0.0092	0.4057 ± 0.0035	0.332 ± 0.028	
NOS1 BONE	2.09	1.35	2.87	2.73	3.08	3.79		0.853 ± 0.16	0.774 ± 0.081	0.938 ± 0.16	0.863 ± 0.062	0.968 ± 0.12	0.973 ± 0.13	0.811 ± 0.059	0.764 ± 0.14	2.86
HS578T BREAST	2.21	0.912	2.8	2.39	2.92	3.13	3.38	0.81 ± 0.081	0.76 ± 0.082	0.841 ± 0.024	0.899 ± 0.077	1.13 ± 0.1	0.987 ± 0.19	0.681 ± 0.061	0.668 ± 0.13	
HU09 BONE	1.39	0.614	2.37	2.19	3.15	3.42		0.854 ± 0.062	0.812 ± 0.027	0.97 ± 0.061	0.882 ± 0.018	0.857 ± 0.021	0.537 ± 0.042	0.0813 ± 0.0049	0.0557 ± 0.0035	3.05
ZR751 BREAST	2.39	2.69	2.9	2.71	2.8		3.69	1.02 ± 0.049	1 ± 0.21	1.01 ± 0.14	0.888 ± 0.13	1.01 ± 0.073	0.788 ± 0.011	0.627 ± 0.06	0.472 ± 0.039	2.83
HS57T BREAST								0.892 ± 0.016	0.885 ± 0.028	0.904 ± 0.051	0.853 ± 0.027	0.75 ± 0.024	0.612 ± 0.045	0.325 ± 0.037	0.246 ± 0.011	
VP229 BREAST	2.34	1.18	2.46	3.5	1.58	3.57		0.763 ± 0.17	0.668 ± 0.054	0.686 ± 0.11	0.643 ± 0.084	1 ± 0.14	0.835 ± 0.12	0.69 ± 0.099	0.669 ± 0.083	1.7
SG27 HEADNECK	2.78	2.97		3.1	3.27	3.34		1.05 ± 0.027	1.01 ± 0.041	1 ± 0.16	0.731 ± 0.054	0.97 ± 0.021	0.975 ± 0.075	0.999 ± 0.025	0.885 ± 0.022	3.13
SUM159 BREAST	2.17	1.81	2.81	3.54	3.11		3.33	0.954 ± 0.016	0.942 ± 0.01	0.947 ± 0.028	0.9227 ± 0.0074	0.935 ± 0.018	0.851 ± 0.018	0.42 ± 0.0061	0.34 ± 0.021	3.13
VCAP PROSTATE	2.12	0.516	3.11	2.82	3.15	3.49		0.892 ± 0.048	0.935 ± 0.07	0.959 ± 0.085	0.91 ± 0.055	1.06 ± 0.038	1.03 ± 0.1	0.95 ± 0.015	0.791 ± 0.1	3.11
A549 LUNG	2.28	1.16	2.57		3.08	3.21	3.23	0.906 ± 0.026	0.906 ± 0.023	0.908 ± 0.021	0.906 ± 0.013	0.87 ± 0.022	0.666 ± 0.035	0.416 ± 0.001	0.308 ± 0.034	3.35
